As usually defined, the IC50 is the concentration needed to halve the response being measured. In general, melting point refers to the temperature, or range, at which the solid turns liquid.

Where “and” joins values, the source holds several entries; their conditions need not be identical. Identical values can stand only once.

The record followed here is paper PMC6151488, “Structure, Absolute Configuration, and Antiproliferative Activity of Abietane and Icetexane Diterpenoids from Salvia ballotiflora” (Molecules : A Journal of Synthetic Chemistry and Natural …, 2017).

Series [1] concerns U251 (human glioblastoma). Nature of the series: Sulforhodamine B (SRB) cytotoxicity assay, U251. The class given is cell-based. Particulars: Homo sapiens. From the text:
(§1) The natural products were screened in vitro against the following human cancer cell lines: human mammary adenocarcinoma (MCF-7), human chronic myelogenous leukemia (K562), human glioblastoma (U251), human lung adenocarcinoma (SKLU-1), human colon cancer (HCT-15), human prostate cancer (PC-3), healthy gingival human fibroblasts (FGH), and normal monkey kidney cell lines, which were supplied by the National Cancer Institute (NCI, USA) and American Type Culture Collection (ATTC). The human tumor cytotoxicity was determined using the protein-binding dye sulforhodamine B (SRB) in a microculture assay to measure cell growth, as described in the protocol established by the NCI [30]. The cell lines were cultured in RPMI-1640 medium supplemented with 10% fetal bovine serum, 2 mM L-glutamine, 10,000 units/mL penicillin G sodium, 10,000 μg/mL streptomycin sulfate, and 25 μg/mL amphotericin B (Gibco), and 1% non-essential amino acids (Gibco). They were maintained at 37 °C in a humidified atmosphere with 5% CO2.
(§2) Cytotoxicity after treatment of the tumors cells and normal cells with the test compounds were determined using the protein-binding dye sulforhodamine B (SRB) in a microculture assay to measure cell growth. The cells were removed from the tissue culture flasks by treatment with trypsin, and diluted with fresh media. Of these cell suspensions, 100 μL containing 5000–10,000 cells per well were pipetted into 96-well microtiter plates (Costar) and the material was incubated at 37 °C for 24 h in a 5% CO2 atmosphere. Subsequently, 100 μL of a solution of the compound obtained by diluting the stocks were added to each well. The cultures were exposed to the compound for 48 h. After the incubation period, cells were fixed to the plastic substratum by the addition of 50 μL of cold 50% aqueous trichloroacetic acid. The plates were incubated at 4 °C for 1 h, washed with tap water, and air-dried. The trichloroacetic-acid-fixed cells were stained by the addition of 0.4% SRB. The free SRB solution was then removed by washing with 1% aqueous acetic-acid. The plates were air-dried, and the bound dye was dissolved by the addition of 10 mM unbuffered Tris base (100 μL). The plates were placed on a shaker for 10 min, and the absorption was determined at 515 nm using an ELISA plate reader (Bio-Tex Instruments).
(In general: The SRB assay estimates cell density from bound dye.)

For series [2], the system named is SKLU-1 (human lung adenocarcinoma). Nature of the series: Sulforhodamine B (SRB) cytotoxicity assay, SKLU-1. To be noted: Homo sapiens; for inhibition at 50 µM: primary screening at 50.0 μM, NC = No cytotoxic. The class given is cell-based.
Text: as §1, with “CO2. The viability of the cells used in the experiments exceeded 95%, as determined with trypan blue.” for “CO2.”
as §2

For series [3], the system named is COS-7 normal monkey kidney. In words: Sulforhodamine B (SRB) cytotoxicity assay, COS-7 normal cell line. It counts as cell-based. Particulars: Primates, mean ± SD.
Text: as §1, with “CO2. The viability of the cells used in the experiments exceeded 95%, as determined with trypan blue.” for “CO2.”
as §2, with “The plates were incubated at 4 °C for 1 h, washed with tap water, and air-dried. The trichloroacetic-acid-fixed cells were stained by the addition of 0.4% SRB. The free SRB solution was then removed by washing with 1% aqueous acetic-acid. The plates were air-dried, and the bound dye was dissolved by the addition of 10 mM unbuffered Tris base (100 μL).” left out

Series [4] has as its system K562 (human chronic myelogenous leukemia). In words: Sulforhodamine B (SRB) cytotoxicity assay, K562. It counts as cell-based. Particulars: Homo sapiens, K562.
Text: as §1, with “CO2. The viability of the cells used in the experiments exceeded 95%, as determined with trypan blue.” for “CO2.”
as §2

In series [5] the test system is MCF-7 (human mammary adenocarcinoma). Nature of the series: Sulforhodamine B (SRB) cytotoxicity assay, MCF-7. To be noted: Homo sapiens, MCF7; for inhibition at 50 µM: primary screening at 50.0 μM, NC = No cytotoxic. It counts as cell-based.
Text: as §1, with “CO2. The viability of the cells used in the experiments exceeded 95%, as determined with trypan blue.” for “CO2.”
as §2

Series [6] has as its system PC-3 (human prostate cancer). In words: Sulforhodamine B (SRB) cytotoxicity assay, PC-3. It counts as cell-based.
Text: as §1, with “CO2. The viability of the cells used in the experiments exceeded 95%, as determined with trypan blue.” for “CO2.”
as §2

The test system of series [7] is HCT-15 (human colon cancer). In words: Sulforhodamine B (SRB) cytotoxicity assay, HCT-15. It counts as cell-based.
Text: as §1, with “CO2. The viability of the cells used in the experiments exceeded 95%, as determined with trypan blue.” for “CO2.”
as §2

The test system of series [8] is TPA-induced ear edema. In words: TPA-induced ear edema test in mice. To be noted: mice CD-1, 1.0 μmol ear^-1 topical, 4 h after TPA, mean ± SEM; for Inhibition of Edema (%): NA = Non-active. It counts as in vivo. The procedure:
Male CD-1 mice weighing 25–30 g were maintained under standard laboratory conditions in the animal house (temperature 24 ± 2 °C) in a 12/12 h light/dark cycle, fed a laboratory diet and water ad libitum, following the Mexican official norm NOM-062-Z00-1999.
The TPA-induced ear edema assay in mice was performed as reported in reference. A solution of TPA (2.5 μg) in ethanol (10 μL) was applied topically to both faces (5 μL each ear) of the right ear of the mice, 10 min after solutions of the test substances in their respective solvents were applied (10 μL each face). The left ear received ethanol (10 μL) first, followed by 20 μL of the respective solvent. The mice were killed with CO2 four hours later. A 7-mm diameter plug was removed from each ear. The swelling was assessed as the difference in weight between the left and the right ear. Control animals received the correspondent solvent in each case. Edema inhibition (EI %) was calculated by the equation EI % = 100 − (B × 100/A), where A is the edema induced by TPA alone and B is the edema induced by TPA plus the sample. Indomethacin and celecoxib were used as reference compounds.

For series [9], the system named is six human cancer cell lines (U251, PC-3, K562, HCT-15, MCF-7, SKLU-1) and FGH. In words: SRB primary screening, whole panel (result in words). The class given is cell-based. To be noted: primary screening at 50.0 μM, complete panel. The procedure: The same biological activity was also recently described for icetexane-derivatives isolated from Premna and Amentotaxus species. […] These facts prompted us to assay diterpenoids 3, 4, 6–8 and 10 for antiproliferative activity using six human cancer cell lines (U251, PC-3, K562, HCT-15, MCF-7, and SKLU-1), and a primary culture of healthy gingival human fibroblasts (FGH) at 1.0 or 50.0 μM (when cytotoxicity at 50.0 μM results were too high). […] Overall, the antiproliferative activity determined for 7 was lower than that observed for 6.
as §1, with “CO2. The viability of the cells used in the experiments exceeded 95%, as determined with trypan blue.” for “CO2.”
Cytotoxicity after treatment of the tumors cells and normal cells with the test compounds were determined using the protein-binding dye sulforhodamine B (SRB) in a microculture assay to measure cell growth. […] The plates were placed on a shaker for 10 min, and the absorption was determined at 515 nm using an ELISA plate reader (Bio-Tex Instruments).

A short description of series [10]: Scavenging activity on free radical DPPH. Particulars: 30 min, 37 °C; for IC50: DPPH 100 μM, mean ± SEM; for DPPH inhibitory effect (%): at 100 μM. The procedure:
Free radical scavenging activity was measured using an adapted method of Mellors and Tappel. The test was carried out in 96-well microplates. A 50-μL aliquot of the solution of the test compound was mixed with 150 μL of an ethanol solution of DPPH (final concentration 100 μM). The mixture was incubated at 37 °C for 30 min, and the absorbance was then measured at 515 nm using a BioTek microplate reader SYNERGY HT. The percent inhibition was determined by comparison with a 100-μM DPPH ethanol blank solution.
(The DPPH test is a chemical assay of radical scavenging.)

Where [11] appears, read: SK-LU-1, mean n = 2, read-out: Antiproliferative activity (%), SKLU-1.
Setting [12] is: mean n = 2, read-out: Antiproliferative activity (%), MCF-7.

Turning to `COc1cccc2c1C(=O)c1c(O)c3c(c(O)c1C2=O)C[C@@](O)(C(=O)CO)C[C@@H]3O[C@H]1C[C@H](N)[C@H](O)[C@H](C)O1` [Adriamicyn, adriamycin, reference compound], the IC50 in series [1] (U-251, 48 h, SRB assay, 48 h exposure, mean ± SD, read-out: IC50 antiproliferative activity, U251) was determined as 0.08 ± 0.003 µM; in series [2] (SK-LU-1, 48 h, SRB assay, 48 h exposure, mean ± SD, read-out: IC50 antiproliferative activity, SKLU-1) it was 0.05 ± 0.003 µM; in series [3] it was 0.25 ± 0.009 µM; in [4] (SRB assay, 48 h exposure, mean ± SD, read-out: IC50 antiproliferative activity, K562), 0.2 ± 0.02 µM; in [5] (SRB assay, 48 h exposure, mean ± SD, read-out: IC50 antiproliferative activity, MCF-7), 0.23 ± 0.02 µM. The inhibition at 0.5 µM is 96% in series [1] (U-251, positive control at 0.5 μM, mean n = 2, read-out: Antiproliferative activity (%), U251); 90% in series [2] (SK-LU-1, positive control at 0.5 μM, mean n = 2, read-out: Antiproliferative activity (%), SKLU-1); 100% in series [4] (positive control at 0.5 μM, mean n = 2, read-out: Antiproliferative activity (%), K562); 99.1% in [5] (positive control at 0.5 μM, mean n = 2, read-out: Antiproliferative activity (%), MCF-7); 85.2% in series [6] (positive control at 0.5 μM, mean n = 2, read-out: Antiproliferative activity (%), PC-3); 86.9% in [7] (positive control at 0.5 μM, mean n = 2, read-out: Antiproliferative activity (%), HCT-15).
Consider `Cc1ccc(-c2cc(C(F)(F)F)nn2-c2ccc(S(N)(=O)=O)cc2)cc1` [Celecoxib, celecoxib, reference compound], for which the “Edema” value in series [8] is 6.94 ± 1.56 mg. The “Inhibition of Edema (%)” value in series [8] was 54.34 ± 10.28%; in series [8] (listed as celecoxib), 54.3 ± 10.3%.
As for `CC(C)c1c(O)c(O)c2c(c1O)C(=O)CC1C3(CCCC1(C)C(=O)O3)C2` (centres unmarked) [Compound 4, 6,7,11,14-Tetrahydro-7-oxoicetexone], the melting point lay in the range of 130 to 135 °C. Further, in series [1] (U-251, primary screening at 50.0 μM, mean n = 2, NC = No cytotoxic, read-out: Antiproliferative activity (%), U251), the inhibition at 50 µM was determined as 100%. Besides, the inhibition at 50 µM in series [2] (setting [11]) was 96.9%. In addition, the inhibition at 50 µM in series [4] (primary screening at 50.0 μM, mean n = 2, NC = No cytotoxic, read-out: Antiproliferative activity (%), K562) is 100%. Further, the inhibition at 50 µM in series [5] (setting [12]) was found to be 99%. Moreover, the inhibition at 50 µM in series [6] (primary screening at 50.0 μM, mean n = 2, NC = No cytotoxic, read-out: Antiproliferative activity (%), PC-3) was 80.3%. In series [7] (primary screening at 50.0 μM, mean n = 2, NC = No cytotoxic, read-out: Antiproliferative activity (%), HCT-15), the inhibition at 50 µM came out at 76.7%. In addition, in series [9], the “Toxicity to the complete panel (in words)” value is “very toxic”. For the same molecule, in series [10], the IC50 amounted to 98.4 ± 3.3 µM and the “DPPH inhibitory effect (%)” value is listed as 64.5%.
For `CC(C)C1=C(O)C(=O)C2=C(C1=O)C(O)CC1C3(C)CCCC21C(O)OC3` (centres unmarked) [Compound 10, conacytone], the inhibition at 50 µM in [2] (setting [11]) amounted to 11.8%. The inhibition at 50 µM in series [5] (setting [12]) is 14.7%. Besides, in [9], the “Toxicity to the complete panel (in words)” value is on record as “no toxicity”. Also, in series [8], the “Edema” value was 11.77 ± 047 mg; the “Inhibition of Edema (%)” value was 25.4 ± 3.0% and 25.37 ± 2.98 %. The “DPPH inhibitory effect (%)” value in series [10] is on record as 4.8%.
Regarding `COc1ccc2c(c1)c(CC(=O)O)c(C)n2C(=O)c1ccc(Cl)cc1` [Indometacin, Indomethacin, reference compound], in series [8], the “Edema” value was determined as 2.88 ± 0.73 mg and the “Inhibition of Edema (%)” value worked out at 78.76 ± 7.68 %. In addition, in series [8] (listed as indomethacine), the “Inhibition of Edema (%)” value was found to be 78.8 ± 7.7%.
Regarding `O=c1c(O)c(-c2ccc(O)c(O)c2)oc2cc(O)cc(O)c12` [quercetin, reference compound], in series [10], the half-inhibitory concentration (IC50) amounted to 10.9 ± 0.5 µM.
In the case of `Cc1c(C)c2c(c(C)c1O)CC[C@@](C)(CCC[C@H](C)CCC[C@H](C)CCCC(C)C)O2` [α-tocopherol, reference compound], the half-inhibitory concentration (IC50) in series [10] came out at 31.7 ± 1.04 µM.
